What was measured:
Type in all cases: in vivo, human
HCV Genotype 1 [1] = assay: Phase 2 study of genotype 1 treatment-naive patients: sustained virologic response (SVR); conditions: 600 mg BID for one week followed by 600 mg QD, 48 week treatment duration, combined with peg-IFNα2a
Source text: The virological response parameters are: rapid virologic response at treatment week 4 (RVR 4) defined by undetectable serum HCV-RNA at treatment week 4; early virological response (EVR), defined by at least 2 log10 IU/mL reduction in HCV-RNA compared to baseline (partial EVR) or undetectable serum HCV-RNA (complete EVR) at treatment week 12; sustained virological response (SVR24), defined as absence of HCV-RNA from serum by a sensitive Polymerase Chain Reaction (PCR) assay 24 weeks following end of therapy or the HCV RNA is undetectable (by LOD) 24 weeks after end of treatment; End of Treatment Response (ETR): HCV RNA undetectable (by LOD) at treatment end (completed or prematurely discontinued).

HCV Genotype 1 [2] = assay: Clinical study in HCV Genotype 1 non responder patients: decline in HCV RNA from baseline; conditions: with peg-IFNα2a plus RBV
Source text: HCV RNA levels can be measured using commercially available methods. As used herein, LOD means limit of detection and LOQ means limit of quantification of HCV RNA levels. For example, when using the COBAS® TaqMan® HCV Test, v2.0 (Roche Diagnostics) for assessment of HCV RNA levels, LOQ of 25 IU/ml (1.398 log10) and LOD of 10 IU/ml (1 log10) have been reported.
The efficacy of the therapy regimen may be monitored using standard protocols. Treatment may be followed by determinations of HCV in serum and measurement of serum ALT (alanine-aminotransferase) levels. For example, the patients may be assessed for the presence of HCV RNA in their plasma. HCV RNA (IU/mL) can be measured at regular intervals during the treatment, e.g., at Day 1 (pre-dose and 4, 8, and 12 hours post-dose) and pre-dose at Day 2, Day 3, Day 8, Day 15, Day 29, and at Week 12, Week 24, Week 36, Week 48, Week 72 (when applicable), and at follow up. In addition, the HCV strains in the patient can be sequenced and assessed for identification of mutations selecting for resistance.
In this hard to treat patient population, the 400 mg BID dose provided greater decline in HCV RNA from baseline (−1.41 log10 IU/ml) than the 800 mg QD dose (−0.70 log10 IU/ml). […]

[3] = Observed alisporivir Cmin in the HCV Genotype 1 non responder patient study; conditions: first week of treatment
Source text: As used herein, AUC refers to Area Under the Curve in [hr ng/mL] or area under the concentration vs time curve indicating the integrated quantity of analyte or drug (the serum concentration curve) after dosing; Cmax refers to the maximum concentration of the analyte or drug in [ng/mL] achieved after dosing; Cmin refers to the minimum concentration of the analyte or drug in [ng/mL] achieved after dosing

C/C=C/C[C@@H](C)[C@@H](O)[C@H]1C(=O)N[C@@H](CC)C(=O)N(C)[C@H](C)C(=O)N(CC)[C@@H](C(C)C)C(=O)N[C@@H](C(C)C)C(=O)N(C)[C@@H](CC(C)C)C(=O)N[C@@H](C)C(=O)N[C@H](C)C(=O)N(C)[C@@H](CC(C)C)C(=O)N(C)[C@@H](CC(C)C)C(=O)N(C)[C@@H](C(C)C)C(=O)N1C [alisporivir, Alisporivir]
rates of achievement of sustained virologic response (SVR) versus peg-IFNα2a (HCV Genotype 1 [1]): superior
decline in HCV RNA from baseline (HCV Genotype 1 [2]; 400 mg BID during first week of treatment): −1.41 log10 IU/ml
decline in HCV RNA from baseline (HCV Genotype 1 [2]; 800 mg QD during first week of treatment): −0.70 log10 IU/ml
median observed Cmin ([3]; 400 mg BID): 175 ng/mL
median observed Cmin ([3]; 800 mg QD): 148 ng/mL

— patent US20130251678A1, “BID DOSAGE REGIMEN FOR DEB025” (NOVARTIS AG, priority 2010, published 2013)
